The structures appear in SMILES notation.

The target of one experiment is T1, MMP-1 (Homo sapiens, UniProt P03956).
T1 construct: purchased Washington University School of Medicine, St. Louis, Mo
T1 sequence (P03956 100-469): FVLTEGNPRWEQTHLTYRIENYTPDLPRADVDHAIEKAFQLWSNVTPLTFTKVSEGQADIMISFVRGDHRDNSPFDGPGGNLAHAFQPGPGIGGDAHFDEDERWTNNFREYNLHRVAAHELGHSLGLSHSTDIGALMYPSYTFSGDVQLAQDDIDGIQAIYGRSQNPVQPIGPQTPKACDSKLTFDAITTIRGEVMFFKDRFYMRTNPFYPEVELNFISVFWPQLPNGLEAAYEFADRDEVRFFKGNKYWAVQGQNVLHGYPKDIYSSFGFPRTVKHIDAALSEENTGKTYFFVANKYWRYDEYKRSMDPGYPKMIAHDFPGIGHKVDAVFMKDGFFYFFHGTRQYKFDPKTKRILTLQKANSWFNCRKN
The experiment is described as follows: Thiopeptolide assay, MMP-1. It counts as biochemical. The following applies: full-length enzyme, 5 nM; pH 7.0; 100 μM thiopeptolide substrate. The method, then:
(§1) IC50 values were determined using a thiopeptolide substrate, Ac-Pro-Leu-Gly-thioester-Leu-Leu-Gly-OEt (Ye Q. Z., Johnson L. L., Hupe D. J., and Baragi V., "Purification and Characterization of the Human Stromelysin Catalytic Domain Expressed in Escherichia coli," Biochemistry,1992;31:11231-11235). MMP-1, MMP-7, and MMP-13 activity was assayed in a method similar to MMP-2 and MMP-3 (SCD and GCD). MMP-1 can be obtained from Washington University School of Medicine, St. Louis, Mo. MMP-7 can be obtained in accordance with the known procedure set forth by Ye Q. Z., Johnson L. L., and Baragi V., "Gene Syntheses and Expression in E. coli for PUMP, a Human Matrix Metalloproteinase," Biochem. and Biophys. Res. Comm., 1992;186:143-149. MMP13 can be obtained in accordance with the known procedure set forth by Freije J. M. P. et al., "Molecular Cloning and Expression of Collegenase-3, a Novel Human Matrix Metalloproteinase Produced by Breast Carcinomas," J. Bio. Chem., 1994;269:16766-16773.
(§2) Hydrolysis of the thiopeptolide substrate Ac-Pro-Leu-Gly-thioester-Leu-Leu-Gly-OEt (Bachem) is used as the primary screen to determine IC50 values for MMP inhibitors. A 100 μL reaction contains 1 mM 5,5'-dithiobis(2-nitrobenzoic acid) (DTNB), 100 μM substrate, 0.1% BRIJ® 35, PROTEIN GRADE®, Detergent, 10% solution, Sigma, St. Louis, Mo. [polyoxyethyleneglycol dodecyl ether; polyoxyethylene (23) lauryl ether], enzyme, and inhibitor in the appropriate reaction buffer. Activated full-length enzymes are assayed at 5 nM, Stromelysin Catalytic Domain (SCD) at 10 nM, and Gelatinase A Catalytic Domain (GaCD) at 1 nM. Inhibitors are screened from 100 μM to 1 nM. Full-length enzymes (MMP-1 and MMP-7) are assayed in 50 mM HEPES, 10 mM CaCl2, pH 7.0; SCD in 50 mM MES, 10 mM CaCl2, pH 6.0; and GaCD in 50 mM MOPS, 10 mM CaCl2, 10 μM ZnCl2, pH 7.0. The change in absorbance at 405 nm is monitored on a ThermoMax microplate reader at room temperature continuously for 20 minutes.

A further experiment concerns the target MMP-2CD. The experiment is described as follows: Thiopeptolide assay, gelatinase A catalytic domain (GCD/GaCD). The experiment is classed as biochemical. To be noted: 1 nM, pH 7.0, 100 μM thiopeptolide substrate. As for the experimental part: as §1, §2
Another experiment concerns the target T2, MMP-3CD (Homo sapiens, UniProt P08254).
T2 construct: Stromelysin Catalytic Domain (SCD) at 10 nM; made in house; host or cells: Escherichia coli
Nature of the experiment: Thiopeptolide assay, stromelysin-1 catalytic domain (SCD). The experiment is classed as biochemical. To be noted: 10 nM, pH 6.0, 100 μM thiopeptolide substrate. As for the experimental part: as §1, §2

A further experiment has as its target T3, MMP-7 (Homo sapiens, UniProt P09237).
T3 construct: made in house; host or cells: E. coli
T3 sequence (P09237 95-267): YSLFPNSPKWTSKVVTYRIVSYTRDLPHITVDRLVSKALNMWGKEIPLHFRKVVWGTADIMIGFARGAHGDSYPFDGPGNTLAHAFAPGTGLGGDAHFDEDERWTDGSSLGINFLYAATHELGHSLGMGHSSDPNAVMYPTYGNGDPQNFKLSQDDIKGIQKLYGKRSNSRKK
Nature of the experiment: Thiopeptolide assay, MMP-7. It counts as biochemical. To be noted: full-length enzyme, 5 nM; pH 7.0; 100 μM thiopeptolide substrate. The method, then: as §1, §2

The target in the next experiment is MMP-9 (Homo sapiens, UniProt P14780). The experiment is described as follows: Thiopeptolide assay, MMP-9. The experiment is classed as biochemical. The following applies: thiopeptolide substrate. The method, then:
[The source words this procedure for another target and reports this target under the same test.] as §1, §2

A further experiment relates to MMP-13CD. Nature of the experiment: Thiopeptolide assay, MMP-13CD. It counts as biochemical, Human. The following applies: catalytic domain; thiopeptolide substrate. As for the experimental part: as §1, §2
The test system of the next experiment is MMP-14CD. Nature of the experiment: Thiopeptolide assay, MMP-14CD. The experiment is classed as biochemical. The following applies: catalytic domain; thiopeptolide substrate. The method, then:
as §1, §2

MMP-9, sequence (P14780 94-707): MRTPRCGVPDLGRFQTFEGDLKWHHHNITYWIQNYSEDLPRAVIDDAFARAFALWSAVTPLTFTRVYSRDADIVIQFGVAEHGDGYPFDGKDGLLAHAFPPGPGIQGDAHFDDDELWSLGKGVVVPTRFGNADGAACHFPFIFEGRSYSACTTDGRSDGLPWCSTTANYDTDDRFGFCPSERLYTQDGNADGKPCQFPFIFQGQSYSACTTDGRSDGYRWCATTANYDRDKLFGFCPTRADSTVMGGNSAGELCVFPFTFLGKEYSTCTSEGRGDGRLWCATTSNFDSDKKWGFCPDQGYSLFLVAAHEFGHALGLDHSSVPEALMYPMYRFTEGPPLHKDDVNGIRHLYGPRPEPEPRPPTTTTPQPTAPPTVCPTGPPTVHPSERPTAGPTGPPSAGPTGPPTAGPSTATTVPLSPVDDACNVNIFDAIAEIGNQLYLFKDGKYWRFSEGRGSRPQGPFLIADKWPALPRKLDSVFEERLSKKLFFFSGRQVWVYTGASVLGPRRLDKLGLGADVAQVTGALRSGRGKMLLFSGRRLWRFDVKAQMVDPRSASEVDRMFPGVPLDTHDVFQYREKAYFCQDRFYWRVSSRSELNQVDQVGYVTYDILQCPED
T2 sequence (P08254 100-272 limits assumed): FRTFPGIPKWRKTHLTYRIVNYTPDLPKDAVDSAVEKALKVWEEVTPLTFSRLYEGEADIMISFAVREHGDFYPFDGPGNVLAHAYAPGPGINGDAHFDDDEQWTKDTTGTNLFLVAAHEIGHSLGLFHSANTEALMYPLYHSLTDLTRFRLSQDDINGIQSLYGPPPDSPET

One may read the IC50 as the point on the concentration scale where inhibition reaches its midpoint. A lower IC50 goes with inhibition by little substance. Consider `CC(C)[C@H](NS(=O)(=O)c1ccc2c(c1)Sc1ccccc1S2)C(=O)O` [Example 1, (S)-3-Methyl-2-((thianthren-2-ylsulfonyl)amino)butanoic acid], for which the half-maximal inhibitory concentration (IC50) against MMP-1 is > 100 µM; against MMP-2CD, 15.4 µM; on MMP-3CD, 6.9 µM; against MMP-7 it was 27.6 µM; against MMP-9 it was > 100 µM; with MMP-13CD, > 100 µM. Moreover, in the experiment on MMP-14CD, half-maximal inhibition (IC50) was put at 40 µM.
`O=C(O)[C@H](CCc1ccccc1)NS(=O)(=O)c1ccc2c(c1)Sc1ccccc1O2` [Example 2, (S)-2-(Phenoxathiine-2-sulfonylamino)-4-phenyl-butyric acid]: the half-maximal inhibitory concentration (IC50) against MMP-1 was > 100 µM; on MMP-2CD it was 0.033 µM; against MMP-3CD, 0.054 µM; at MMP-7, 7.9 µM; against MMP-9, 16.6 µM; in the experiment with MMP-13CD it was 1.39 µM. In the experiment on MMP-14CD, this compound displayed an IC50 of 0.092 µM.
Turning to `O=C(O)[C@H](CCc1ccccc1)NS(=O)(=O)c1ccc2c(c1)Cc1ccccc1O2` [Example 3, (S)-4-Phenyl-2-(9H-xanthene-2-sulfonylamino)-butyric acid], the concentration for half-maximal inhibition (IC50) was > 100 µM at MMP-1; 0.2 µM against MMP-2CD; 0.068 µM against MMP-3CD; 3.2 µM on MMP-7; > 100 µM against MMP-9; 0.5 µM in the experiment with MMP-13CD. In the experiment with MMP-14CD, the IC50 is 1 µM.
Regarding `CC(C)[C@H](NS(=O)(=O)c1ccc2c(c1)Sc1ccccc1O2)C(=O)O` [Example 4, (S)-3-Methyl-2-(phenoxathiine-2-sulfonylamino)-butyric acid], the IC50 on MMP-1 is 39 µM; at MMP-3CD, 0.053 µM; against MMP-7 it was 6.7 µM; against MMP-9 it was 19 µM.
As for `O=C(O)[C@H](CO)NS(=O)(=O)c1ccc2c(c1)Sc1ccccc1O2` [Example 5, (S)-3-Hydroxy-2-(phenoxathiine-2-sulfonylamino)-propionic acid], the 50% inhibitory concentration (IC50) on MMP-1 was > 100 µM; on MMP-2CD, 0.069 µM; against MMP-3CD, 0.18 µM; against MMP-7, 23 µM; on MMP-9 it was 82 µM; in the experiment on MMP-13CD, 1.8 µM. This compound also yielded a half-maximal inhibitory concentration (IC50) in the experiment on MMP-14CD of 0.39 µM.
For the compound `O=C(O)[C@H](CO)NS(=O)(=O)c1ccc2c(c1)Cc1ccccc1O2` [Example 6, (S)-3-Hydroxy-2-(9H-xanthene-2-sulfonylamino)-propionic acid], the half-maximal inhibitory concentration (IC50) against MMP-1 is > 100 µM; against MMP-2CD, 0.65 µM; on MMP-3CD, 0.44 µM; on MMP-7 it was 34 µM; against MMP-9 it was > 100 µM; with MMP-13CD, 4.3 µM. The same compound registered an IC50 with MMP-14CD of 4.1 µM.
Turning to `O=C(O)[C@H](CCc1ccccc1)NS(=O)(=O)c1ccc2c(c1)S(=O)(=O)c1ccccc1O2` [Example 7, (S)-2-(10,10-Dioxo-10H-10λ^6-phenoxathiine-2-sulfonylamino)-4-phenyl-butyric acid], the IC50 at MMP-1 was > 100 µM; on MMP-2CD, 2.3 µM; on MMP-3CD, 3.75 µM; at MMP-7 it was 24 µM; at MMP-9, > 100 µM; in the experiment with MMP-13CD, 73 µM. In the experiment on MMP-14CD, this compound came in with a half-inhibitory concentration (IC50) of 3.7 µM.
As for `CC(C)[C@@H](NS(=O)(=O)c1ccc2c(c1)Sc1ccccc1O2)C(=O)O` [Example 8, (R)-3-Methyl-2-(phenoxathiine-2-sulfonylamino)-butyric acid], the half-maximal inhibitory concentration (IC50) on MMP-1 worked out at 6.25 µM; against MMP-2CD, 0.027 µM; at MMP-3CD, 0.0155 µM; against MMP-7, 19 µM; on MMP-9, 12 µM; with MMP-13CD, 0.27 µM. The concentration for half-maximal inhibition (IC50) in the experiment on MMP-14CD was determined as 0.155 µM.
As for `C[C@H](NS(=O)(=O)c1ccc2c(c1)Sc1ccccc1O2)C(=O)O` [Example 9, (S)-2-(Phenoxathiine-2-sulfonylamino)-propionic acid], the IC50 amounted to 76 µM against MMP-1; 0.033 µM on MMP-2CD; 0.295 µM on MMP-3CD; 19 µM against MMP-7; 23 µM against MMP-9; 5.25 µM with MMP-13CD. Moreover, half-maximal inhibition with MMP-14CD (IC50) required 0.19 µM.
Take `C[S+]([O-])CC[C@H](NS(=O)(=O)c1ccc2c(c1)Sc1ccccc1O2)C(=O)O` (stereo partly drawn) [Example 10, (S)-4-Methanesulfinyl-2-(phenoxathiine-2-sulfonylamino)-butyric acid]: the IC50 on MMP-1 stood at 72 µM; against MMP-2CD it was 0.0585 µM; against MMP-3CD it was 0.165 µM; at MMP-7, 9.15 µM; against MMP-9 it was 38 µM; in the experiment on MMP-13CD, 4.1 µM. Half-maximal inhibition with MMP-14CD (IC50) required 0.285 µM.
Turning to `CC(C)C[C@H](NS(=O)(=O)c1ccc2c(c1)Sc1ccccc1O2)C(=O)O` [Example 11, (S)-4-Methyl-2-(phenoxathiine-2-sulfonylamino)-pentanoic acid], the IC50 at MMP-1 was 55 µM; against MMP-2CD, 0.0235 µM; at MMP-3CD it was 0.0625 µM; on MMP-7, 8.7 µM; against MMP-9, 18 µM; with MMP-13CD it was 3.9 µM. Further, inhibition in the experiment on MMP-14CD was half-maximal at 0.3 µM (IC50).
Take `O=C(O)[C@H](Cc1ccccc1)NS(=O)(=O)c1ccc2c(c1)Sc1ccccc1O2` [Example 12, (S)-2-(Phenoxathiine-2-sulfonylamino)-3-phenyl-propionic acid]: the IC50 is > 100 µM on MMP-1; 0.17 µM at MMP-2CD; 0.35 µM on MMP-3CD; 91 µM against MMP-7; > 100 µM against MMP-9; 8.7 µM in the experiment on MMP-13CD. Moreover, 0.5 µM corresponded to half-maximal inhibition in the experiment with MMP-14CD (IC50).
Consider `O=C(O)[C@H](CSC(c1ccccc1)(c1ccccc1)c1ccccc1)NS(=O)(=O)c1ccc2c(c1)Sc1ccccc1O2` [Example 13, (R)-2-(Phenoxathiine-2-sulfonylamino)-3-tritylsulfanyl-propionic acid], for which the IC50 at MMP-1 was > 100 µM; on MMP-2CD it was 3.2 µM; at MMP-3CD, 4.65 µM; on MMP-7, 66 µM; against MMP-9, > 100 µM; in the experiment on MMP-13CD it was 36 µM. This compound also yielded a half-inhibitory concentration (IC50) in the experiment with MMP-14CD of 7.4 µM.
In the case of `O=C(O)[C@H](Cc1ccc(O)cc1)NS(=O)(=O)c1ccc2c(c1)Sc1ccccc1O2` [Example 14, (S)-3-(4-Hydroxy-phenyl)-2-(phenoxathiine-2-sulfonylamino)-propionic acid], the concentration for half-maximal inhibition (IC50) against MMP-1 stood at 87 µM; against MMP-2CD, 0.09 µM; on MMP-3CD, 0.12 µM; at MMP-7, 17 µM; at MMP-9, 18 µM; with MMP-13CD, 2.3 µM. For the same compound, in the experiment on MMP-14CD, the IC50 was determined as 0.2 µM.
As for `O=C(O)[C@H](Cc1c[nH]c2ccccc12)NS(=O)(=O)c1ccc2c(c1)Sc1ccccc1O2` [Example 15, (S)-3-(1H-Indol-3-yl)-2-(phenoxathiine-2-sulfonylamino)-propionic acid], the IC50 on MMP-1 is > 100 µM; at MMP-2CD, 0.91 µM; at MMP-3CD, 0.86 µM; on MMP-7, 54 µM; on MMP-9, > 100 µM; in the experiment on MMP-13CD it was 16 µM. In the experiment on MMP-14CD, this compound gave a concentration for half-maximal inhibition (IC50) of 3.8 µM.
